In ChEMBL document CHEMBL1201862, “PubChem BioAssay data set” (2004):
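Each compound was tested at five concentrations against cells in 96-well plates for 48 hours. GI50 = concentration required for 50% inhibition of growth.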 Calls of active or inactive are those of the source. Cut-off read from the data, not from the text of the source: active = GI50 up to about 1.1 µM and inactive = higher.

Key:
Experiment in all cases: NCI tumour cell line growth inhibition, 48 h
SNB-75 = test system: SNB-75
SK-MEL-28 = test system: SK-MEL-28
ACHN = test system: ACHN
CAKI-1 = test system: CAKI-1
MDA-MB-435 = test system: MDA-MB-435
HOP-62 = test system: HOP-62
HCT-15 = test system: HCT-15
MCF7 = test system: MCF7
MDA-MB-231 = test system: MDA-MB-231
RPMI-8226 = test system: RPMI-8226
MDA-N = test system: MDA-N
SNB-19 = test system: SNB-19
786-0 = test system: 786-0
U-251 = test system: U-251
NCI-H460 = test system: NCI-H460
SK-OV-3 = test system: SK-OV-3
RXF 393 = test system: RXF 393
HOP-92 = test system: HOP-92
OVCAR-8 = test system: OVCAR-8
NCI-H226 = test system: NCI-H226

Compound	GI50 (SNB-75)	GI50 (SK-MEL-28)	GI50 (ACHN)	GI50 (CAKI-1)	GI50 (MDA-MB-435)	GI50 (HOP-62)	GI50 (HCT-15) [µM]	GI50 (MCF7)	GI50 (MDA-MB-231)	GI50 (RPMI-8226)	GI50 (MDA-N)	GI50 (SNB-19)	GI50 (786-0)	GI50 (U-251)	GI50 (NCI-H460)	GI50 (SK-OV-3)	GI50 (RXF 393)	GI50 (HOP-92)	GI50 (OVCAR-8)	GI50 (NCI-H226)
Cl/C(=N\c1cccc2ccccc12)N(c1ccccc1)c1ccccc1	> 100 µM (inactive)	> 100 µM (inactive)	66.7 µM (inactive)	> 100 µM (inactive)	> 100 µM (inactive)	> 100 µM (inactive)	> 100	35.2 µM (inactive)	> 100 µM (inactive)	27.1 µM (inactive)	52 µM (inactive)	> 100 µM (inactive)	> 100 µM (inactive)	57.7 µM (inactive)	28.4 µM (inactive)	> 100 µM (inactive)	> 100 µM (inactive)			
COc1cc2cc3c4c(cc(OC)c(OC)c4c2cc1OC)CCN3C(=O)N(C)C	19.5 µM (inactive)	27.9 µM (inactive)	75.5 µM (inactive)	34.8 µM (inactive)		72.1 µM (inactive)	> 100			82.6 µM (inactive)		> 100 µM (inactive)	44.5 µM (inactive)	> 100 µM (inactive)	87.7 µM (inactive)	> 100 µM (inactive)	> 100 µM (inactive)	91 µM (inactive)	> 100 µM (inactive)	56.2 µM (inactive)
Cc1cnc2c(c1C)C(=O)c1ccccc1C2=O	32.9 µM (inactive)	> 100 µM (inactive)	36.4 µM (inactive)	30 µM (inactive)	19.3 µM (inactive)	2.47 µM (inactive)	21.6	39.1 µM (inactive)	26.5 µM (inactive)	24.6 µM (inactive)		41.9 µM (inactive)	65.2 µM (inactive)	61.5 µM (inactive)	18.8 µM (inactive)	50.5 µM (inactive)	58.1 µM (inactive)	> 100 µM (inactive)	43.2 µM (inactive)	36.8 µM (inactive)
CC1OC(OC2C(OC(=O)[C@@H]3CC(C)(C)C[C@@H]4C5=CC[C@@H]6[C@@]7(C)C[C@H](O)[C@H](OC8OC(CO)C(O)C(O)C8O)[C@@](C)(CO)C7[C@H](O)C[C@@]6(C)[C@]5(C)C[C@@H](O)[C@H]43)OCC(O)C2O)C(O)C(O)C1O (some centres undefined)	> 15 µM (inactive)		> 15 µM (inactive)	> 15 µM (inactive)	> 15 µM (inactive)	> 15 µM (inactive)	> 15	> 15 µM (inactive)	> 15 µM (inactive)			> 15 µM (inactive)	> 15 µM (inactive)	> 15 µM (inactive)	> 15 µM (inactive)	> 15 µM (inactive)	7.45 µM (inactive)	> 15 µM (inactive)	> 15 µM (inactive)	> 15 µM (inactive)
N#Cc1[nH]c(=O)n(-c2ccc([N+](=O)[O-])cc2)c1N	> 10 µM (inactive)	> 10 µM (inactive)	> 10 µM (inactive)		> 10 µM (inactive)	> 10 µM (inactive)	> 10		> 10 µM (inactive)	> 10 µM (inactive)	> 10 µM (inactive)	> 10 µM (inactive)	> 10 µM (inactive)	> 10 µM (inactive)	7.64 µM (inactive)	> 10 µM (inactive)	> 10 µM (inactive)	> 10 µM (inactive)	> 10 µM (inactive)	> 10 µM (inactive)
Cc1ccc2c(c1)NC(=O)CCSSCCC(=O)N2		> 100 µM (inactive)	> 100 µM (inactive)	> 100 µM (inactive)	> 100 µM (inactive)	> 100 µM (inactive)	> 100		> 100 µM (inactive)	> 100 µM (inactive)	> 100 µM (inactive)	> 100 µM (inactive)	> 100 µM (inactive)	> 100 µM (inactive)	> 100 µM (inactive)	> 100 µM (inactive)	> 100 µM (inactive)	> 100 µM (inactive)	> 100 µM (inactive)	> 100 µM (inactive)
O=C(CC(=O)c1ccccc1)C(=O)Nc1ccc(Cl)cc1	> 64 µM (inactive)	> 100 µM (inactive)	> 100 µM (inactive)	> 100 µM (inactive)		> 100 µM (inactive)	> 42.9			> 100 µM (inactive)		> 100 µM (inactive)	> 67.6 µM (inactive)	> 100 µM (inactive)	> 39.5 µM (inactive)	> 100 µM (inactive)	> 100 µM (inactive)	> 100 µM (inactive)	> 100 µM (inactive)	> 100 µM (inactive)
CC1=NN(c2nc(N)nc(C/C(N)=N/O)n2)C(C)(C)C1	> 100 µM (inactive)	> 100 µM (inactive)	> 100 µM (inactive)	> 100 µM (inactive)	> 100 µM (inactive)	> 100 µM (inactive)	> 100	> 100 µM (inactive)	> 100 µM (inactive)	> 100 µM (inactive)		> 100 µM (inactive)	> 100 µM (inactive)	> 100 µM (inactive)	> 100 µM (inactive)	> 100 µM (inactive)		> 100 µM (inactive)	> 100 µM (inactive)	> 100 µM (inactive)
